From patent publication US20160074298A1, “POLYPHENOL/FLAVONOID COMPOSITIONS AND METHODS OF FORMULATING ORAL HYGIENIC PRODUCTS” (VIZURI HEALTH SCIENCES LLC, priority 2014, published 2016)
Each block holds one molecule with its values, some of them ahead of it.

Key:
[1] = Heat solubilization in Kolliphor RH-40; assay type: physicochemical
From the text: Step 1. […] Step 3. […] Step 4. […] About 5% solution was stable. Step 1. […] Step 3.

[2] = Stability in alkaline toothpaste with sodium bicarbonate and peroxide; assay type: physicochemical; details: high pH ~10-10.5; sodium bicarbonate, sodium carbonate peroxide, peroxide stabilizer
Experimental: It was experimentally determined that the toothpaste formulations containing both sodium bicarbonate and sodium carbonate peroxide together with stabilizing polymer formulations had pHs of ˜10-10.5. When aglycone flavone (i.e., apigenin and luteolin) powders were added to dentifrices including sodium bicarbonate, sodium bicarbonate peroxide and a peroxide stabilizer, it was also determined that soluble flavone sodium salts were formed that were stable in these highly oxidative peroxide compositions. The presence of stable soluble alkali metal flavone salts with highly anti-oxidant and anti-inflammatory properties in an emulsion formulation was totally unanticipated since aglycone flavones are prone to oxidative decomposition. Curcumin calcium chelate was fabricated and found to be stable in high pH PeroxiCare® toothpaste. Other curcumin chelates (Boron, Zn) were also found to be stable in this formulation, but were not tested in this study. This study was designed to determine if curcumin solubilized using either a heat solubilization or chelated salt technology performed in the same way as earlier results with the flavone apigenin. Vanillin is a breakdown product of curcumin and would be present if the curcumin had substantially decomposed (the lack of vanillin is indicative of a stable delivery of curcumin).

[3] = Saliva concentrations of chronic 1% apigenin toothpaste users (Example 12); assay type: in vivo, human; details: chronic users of PeroxiCare with 1% apigenin
Experimental: Two subjects who have used PeroxiCare® with apigenin at a 1% concentration on a chronic basis provided saliva samples at:
(§1) Saliva was collected at each time point in 50 ml Falcon tubes and immediately transferred to a freezer. All samples were transported to Tufts University within 24 hours of collection. Apigenin in saliva was quantified using high performance liquid chromatograph (HPLC) with electrochemical detection (ECD). Apigenin in 1 ml saliva was extracted using 3 ml acetonitrile. After 2 min of rigorous vortexing, the mixture was spun at 2,000 rpm for 15 min at 4° C. Supernatant was dried under N2 gas, reconstituted with mobile phase A, and analyzed for apigenin with HPLC-ECD. The limit of quantification (LOQ) for apigenin and EGCG in this assay is 15 and 25 ng/ml saliva, respectively.

[4] = Apigenin and EGCG in saliva following use of formulated toothpastes (Example 15); assay type: in vivo, human; details: formulated into a toothpaste product
Experimental: This is a clinical study testing the effect of using one of 3 toothpaste products formulated with apigenin and epigallocatechin gallate (EGCG) on the retention of these flavonoids in the saliva. Briefly, 3 subjects provided saliva samples:
Each subject brushed their teeth for 2 min using the sulcular brushing technique with ˜1.8 gm toothpaste on a new toothbrush. Each subject brushed with only one of 3 products:
Saliva was collected at each time point in 50 mL Falcon tubes and immediately transferred to a freezer. All samples were transported to Tufts University within 8 hours of collection.
as §1, with “Apigenin” for “Saliva was collected at each time point in 50 ml Falcon tubes and immediately transferred to a freezer. All samples were transported to Tufts University within 24 hours of collection. Apigenin”, “Apigenin and EGCG” for “Apigenin”, “1 mL” for “1 ml”

[5] = Water solubility of flavonoid classes (Table XXIII); assay type: physicochemical; details: 20° C.
[6] = Colorimetric retention of EGCG in saliva after brushing (Example 14); assay type: in vivo, human; details: PeroxiCare toothpaste with 0.1 wt. % EGCG and 0.1 wt. % ascorbic acid, pH ~10.5; saliva after brushing and rinsing
Experimental: A saliva sample with an EGCG containing alkaline toothpaste was obtained (1) before brushing and (2) 1 minute after brushing immediately after rinsing. The subject brushed for 2 minutes using the sulcular brushing technique with ˜1.8 gm toothpaste on a toothbrush.
A 5 ml sample of saliva was collected 10 minutes prior to brushing. Tooth brushing was conducted for 2 minutes with 1.8 gm of toothpaste applied to the brush. One minute after brushing, the oral cavity was rinsed with 50 ml of water. Following rinsing, about 8 ml of saliva was collected. The pH of the saliva was measured. In addition, the saliva samples were further made alkaline with the addition of NaOH crystals and the color of the resulting sample noted.

[7] = Stability of aqueous microemulsions as a function of pH; assay type: physicochemical; details: nonionic surfactants Polysorbate 80 and Cremophor/Kolliphor RH-40
From the text: Stable microemulsions with apigenin and the nonionic surfactants, Polysorbate 80 and Cremophor/Kolliphor RH-40, were achieved provided a pH level of 8.0 to 8.5 was maintained. For luteolin, it as determined that a pH of 7 was required to maintain a stable aqueous microemulsion; and for resveratrol, a pH of >4.5 to 7.5.

[8] = Solubilization in Listerine mouth rinse as sodium salt; assay type: physicochemical
Experimental: 100 Grams of the Listerine® Resveratrol Containing Mouth Rinse Formulation was Prepared as Follows: • 1. 98.4 grams of the Listerine® caramel colored mouth rinse was added to a 300 ml Pyrex glass beaker. […] About 0.2 grams of fine NaOH crystals were added to the mixture from Step 2 and thoroughly mixed. A uniformly caramel colored blend resulted with a measured pH of ˜10. […] The pH of the mixture from Step 3 was adjusted to a pH 6.5 by the addition of about 0.2 grams of citric acid crystals. […] • 1. 98.6 grams of the Listerine® caramel colored mouthrinse was added to a 300 ml Pyrex glass beaker. […] About 0.2 grams of fine NaOH crystals were added to the mixture from Step 2 and thoroughly mixed. A uniformly caramel colored blend resulted with a measured pH of ˜10. […] The pH of the mixture from Step 2 was adjusted to a pH 8 by the addition of about 0.2 grams of citric acid crystals.

- apigenin solubilized in RH-40 [1]: more than 5%
- stability in alkaline peroxide toothpaste (PeroxiCare) [2]: stable
- persistence of apigenin levels in saliva post-brushing [3]: at least 8 hours
- time found in saliva following toothpaste use [4]: at least one hour
- stable apigenin concentrate in PS80 (5.0 wt. % apigenin in PS80, heated approaching 300 degree C, cooled to ambient): 50 mg/mL
Molecule: O=c1cc(-c2ccc(O)cc2)oc2cc(O)cc(O)c12 [Apigenin, 4′,5,7,-trihydroxyflavone]

- Water Solubility [5]: ~5 mg/mL
- PS80 Solubility (20° C., thermal processing method, not the maximum solubility levels): 50 mg/mL
Molecule: O.Oc1cc(O)c2c(c1)O[C@H](c1ccc(O)c(O)c1)[C@@H](O)C2 [Catechin]

- retention of EGCG in saliva by color change on alkalizing [6]: retained after brushing
- time found in saliva following toothpaste use [4]: at least one hour
Molecule: O=C(O[C@@H]1Cc2c(O)cc(O)cc2O[C@@H]1c1cc(O)c(O)c(O)c1)c1cc(O)c(O)c(O)c1 [Epigallocatechin Gallate (EGCG), Epigallocatechin gallate]

The remaining lines, values behind:

Molecule: O=c1cc(-c2ccc(O)c(O)c2)oc2cc(O)cc(O)c12 [luteolin, 3′,4′,5,7-tetrahydroxyflavone]
- pH required to maintain a stable aqueous microemulsion [7]: 7
- stability in alkaline peroxide toothpaste (PeroxiCare) [2]: stable
- luteolin concentration of transparent solution ([8]; adjusted to pH 8): 1.5 mg/mL

Molecule: Oc1ccc(C=Cc2cc(O)cc(O)c2)cc1 [resveratrol]
- resveratrol concentration of transparent solution ([8]; adjusted to pH 6.5): 1.2 mg/mL

Molecule: calcium-curcumin chelate
- behaviour in Kolliphor RH-40 ([1]; equivalent concentration of 20% curcumin): precipitates out
- stable solution in Kolliphor RH-40 ([1]; heat solubilized): About 5%
- stability in alkaline peroxide toothpaste (PeroxiCare) [2]: stable
